Measured values published in paper PMC8286840, “Identifying SARS-CoV-2 antiviral compounds by screening for small molecule inhibitors of Nsp3 papain-like protease” (Biochemical Journal, 2021).
Where a name gives a salt, the structure may show the parent alone. Read-outs that look alike come from different tables or passages of the source.

What was measured:
[1] = target: T1, SARS-CoV-2 PLpro (nsp3 1564–1878) (Severe acute respiratory syndrome coronavirus 2, UniProt P0DTD1); experiment: biochemical; set-up: FRET-quenched peptide (Pro3) cleavage by PLpro, 10 min pre-incubation, slope over 20 min, normalised to no-compound control; conditions: low concentration screen, read-out: % of control remaining
[2] = target: T1, SARS-CoV-2 PLpro (nsp3 1564–1878); experiment: biochemical; set-up: FRET-quenched peptide (Pro3) cleavage by PLpro, 10 min pre-incubation, slope over 20 min, normalised to no-compound control; conditions: high concentration screen, read-out: % of control remaining

CCC(=O)OCC(=O)[C@@]1(OC(=O)CC)[C@@H](C)C[C@H]2[C@@H]3CCC4=CC(=O)C=C[C@]4(C)[C@@]3(Cl)[C@@H](O)C[C@@]21C [Beclometasone dipropionate]
remaining activity at 1.25 µM ([1]; Well no.=7615): 101% | remaining activity at 3.75 µM ([2]; Well no.=7615): 96.1%

CCCC(=O)O[C@]1(C(=O)CO)CC[C@H]2[C@@H]3CCC4=CC(=O)CC[C@]4(C)[C@H]3[C@@H](O)C[C@@]21C [Hydrocortisone butyrate]
remaining activity at 1.25 µM ([1]; Well no.=5418): 94.8% | remaining activity at 3.75 µM ([2]; Well no.=5418): 98.8%

Cc1ccccc1C(=O)NCC(=O)O [2-(2-Methylbenzamido)acetic acid]
remaining activity at 1.25 µM ([1]; Well no.=6725): 103% | remaining activity at 3.75 µM ([2]; Well no.=6725): 104%

CN(C)CCC(c1ccc(Br)cc1)c1ccccn1 (single isomer, unassigned; (+)) [(+)-Brompheniramine maleate]
remaining activity at 1.25 µM ([1]; Well no.=365): 98.9% | remaining activity at 3.75 µM ([2]; Well no.=365): 98.5%

CC(=O)Nc1ccc(CC(=O)O)cc1 [Actarit]
remaining activity at 1.25 µM ([1]; Well no.=1907): 96.1% | remaining activity at 3.75 µM ([2]; Well no.=1907): 95.2%

CN(C)CCCSc1ccccc1NC(=O)/C=C/c1ccccc1 [Cinanserin]
remaining activity at 1.25 µM ([1]; Well no.=2094): 101% | remaining activity at 3.75 µM ([2]; Well no.=2094): 101%

N#Cc1cccc(-c2c[nH]c3ncnc(N4CCOCC4)c23)c1 [3-(4-morpholino-7H-pyrrolo[2,3-d]pyrimidin-5-yl)benzonitrile]
remaining activity at 1.25 µM ([1]; Well no.=5684): 97.4% | remaining activity at 3.75 µM ([2]; Well no.=5684): 99.8%

C=C1C[C@@H]2[C@H](CC[C@]3(C)C(=O)CC[C@@H]23)[C@@]2(C)C=CC(=O)C=C12 [Exemestane]
remaining activity at 1.25 µM ([1]; Well no.=1623): 104% | remaining activity at 3.75 µM ([2]; Well no.=1623): 102%

N=C1Sc2ccccc2C2=NCCCN12 [PD 404,182]
remaining activity at 1.25 µM ([1]; Well no.=1096): 98.8% | remaining activity at 3.75 µM ([2]; Well no.=1096): 101%

c1ccc2c(c1)CN1CCCC1=N2 [Desoxypeganine]
remaining activity at 1.25 µM ([1]; Well no.=3278): 98% | remaining activity at 3.75 µM ([2]; Well no.=3278): 97.7%

N#CC[C@H](C1CCCC1)n1cc(-c2ncnc3[nH]ccc23)cn1 [Ruxolitinib (INCB018424)]
remaining activity at 1.25 µM ([1]; Well no.=4805): 103% | remaining activity at 3.75 µM ([2]; Well no.=4805): 104%

N[C@H](CC(=O)O)C(=O)O [(-)-Aspartic acid]
remaining activity at 1.25 µM ([1]; Well no.=7063): 103% | remaining activity at 3.75 µM ([2]; Well no.=7063): 102%

CN(C)CCC=C1c2ccccc2C=Cc2ccccc21 [Cyclobenzaprine hydrochloride]
remaining activity at 1.25 µM ([1]; Well no.=320): 92.5% | remaining activity at 3.75 µM ([2]; Well no.=320): 93.2%

COc1cc(CCc2cc(NC(=O)c3ccc(N4C[C@@H](C)N[C@@H](C)C4)cc3)n[nH]2)cc(OC)c1 [AZD4547]
remaining activity at 1.25 µM ([1]; Well no.=5125): 101% | remaining activity at 3.75 µM ([2]; Well no.=5125): 93.9%

C[C@H]1CC[C@@H]2[C@@H](C)[C@H]3[C@H](C[C@H]4[C@@H]5CC[C@H]6C[C@@H](O)CC[C@]6(C)[C@H]5CC[C@]34C)N2C1 [Demissidine]
remaining activity at 1.25 µM ([1]; Well no.=3202): 104% | remaining activity at 3.75 µM ([2]; Well no.=3202): 107%

CC(C)(C)Cn1c(N)nc2ccc(-c3[nH]c(C(C)(C)C)nc3-c3ccc(F)cc3)nc21 [LY2228820]
remaining activity at 1.25 µM ([1]; Well no.=4915): 98.6% | remaining activity at 3.75 µM ([2]; Well no.=4915): 99.6%

CC[N+](C)(C)c1cccc(O)c1 [Edrophonium chloride]
remaining activity at 1.25 µM ([1]; Well no.=555): 99.7% | remaining activity at 3.75 µM ([2]; Well no.=555): 100%

C[Se]CC[C@H](N)C(=O)O [Selenomethionine]
remaining activity at 1.25 µM ([1]; Well no.=4141): 97.8% | remaining activity at 3.75 µM ([2]; Well no.=4141): 98.7%

CC(=O)CCC(=O)O [Levulinic acid]
remaining activity at 1.25 µM ([1]; Well no.=6545): 101% | remaining activity at 3.75 µM ([2]; Well no.=6545): 98%

O=C1CSc2ccccc2N1Cc1cccc(C(F)(F)F)c1 [4-[3-(trifluoromethyl)benzyl]-2H-1,4-benzothiazin-3(4H)-one]
remaining activity at 1.25 µM ([1]; Well no.=5941): 104% | remaining activity at 3.75 µM ([2]; Well no.=5941): 103%

CC(C)(C)NCC(O)c1ccccc1Cl (stereo not shown) [Tulobuterol]
remaining activity at 1.25 µM ([1]; Well no.=2027): 98.5% | remaining activity at 3.75 µM ([2]; Well no.=2027): 100%

CCCCC[C@H](O)/C=C/C1=C(CCCCCCC(=O)O)C(=O)CC1 [Prostaglandin B1]
remaining activity at 1.25 µM ([1]; Well no.=3088): 99.1% | remaining activity at 1.25 µM ([1]; Well no.=4469): 102% | remaining activity at 3.75 µM ([2]; Well no.=3088): 100% | remaining activity at 3.75 µM ([2]; Well no.=4469): 102%

COCC(=O)NC/C=C/c1ccc2ncnc(Nc3ccc(Oc4ccc(C)nc4)c(C)c3)c2c1 [CP-724714]
remaining activity at 1.25 µM ([1]; Well no.=2837): 103% | remaining activity at 3.75 µM ([2]; Well no.=2837): 103%

CC(C)c1onc(-c2c(Cl)cccc2Cl)c1COc1ccc(/C=C/c2cccc(C(=O)O)c2)c(Cl)c1 [GW4064]
remaining activity at 1.25 µM ([1]; Well no.=5314): 101% | remaining activity at 3.75 µM ([2]; Well no.=5314): 98.2%

C[C@H]1CC[C@@]2(OC1)O[C@H]1C[C@H]3[C@@H]4CC[C@@H]5C[C@@H](O)CC[C@]5(C)[C@H]4CC[C@]3(C)[C@H]1[C@@H]2C [Sarsasapogenin]
remaining activity at 1.25 µM ([1]; Well no.=3102): 95% | remaining activity at 3.75 µM ([2]; Well no.=3102): 92.8%

COc1cccc2c1cc([N+](=O)[O-])c1c(C(=O)O)cc3c(c12)OCO3 [Aristolochic acid A]
remaining activity at 1.25 µM ([1]; Well no.=3081): 106% | remaining activity at 3.75 µM ([2]; Well no.=3081): 103%

CC1CNc2c(cccc2S(=O)(=O)N[C@@H](CCCNC(=N)N)C(=O)N2CC[C@@H](C)C[C@@H]2C(=O)O)C1 (stereo partly drawn) [(2R,4R)-1-((2S)-5-{[amino(imino)methyl]amino}-2-{[(3-methyl-1,2,3,4-tetrahydro-8-quinolinyl)sulfonyl]amino}pentanoyl)-4-methyl-2-piperidinecarboxylic acid hydrate]
remaining activity at 1.25 µM ([1]; Well no.=5613): 96% | remaining activity at 3.75 µM ([2]; Well no.=5613): 96.5%

COc1ccc(CCN2CCC(Nc3nc4ccccc4n3Cc3ccc(F)cc3)CC2)cc1 [Astemizole]
remaining activity at 1.25 µM ([1]; Well no.=2054): 102% | remaining activity at 3.75 µM ([2]; Well no.=2054): 102%

COc1ccc(S(=O)(=O)Nc2cccnc2Nc2ccc(O)cc2)cc1 [ABT-751]
remaining activity at 1.25 µM ([1]; Well no.=5226): 91.8% | remaining activity at 3.75 µM ([2]; Well no.=5226): 92.1%

Cc1cc(C(C)(C)C)c(O)c(C)c1CC1=NCCN1 [Oxymetazoline (hydrochloride)]
remaining activity at 1.25 µM ([1]; Well no.=7327): 102% | remaining activity at 3.75 µM ([2]; Well no.=7327): 99.6%

CCCn1c(=O)c2[nH]c(-c3ccc(OCC(=O)Nc4ccc(C(C)=O)cc4)cc3)nc2n(CCC)c1=O [MRS-1706]
remaining activity at 1.25 µM ([1]; Well no.=8511): 102% | remaining activity at 3.75 µM ([2]; Well no.=8511): 105%

CN1C(=O)CCS(=O)(=O)C1c1ccc(Cl)cc1 (stereo not shown) [Chlormezanone]
remaining activity at 1.25 µM ([1]; Well no.=679): 99% | remaining activity at 3.75 µM ([2]; Well no.=679): 96.9%

C#C[C@]1(O)CC[C@H]2[C@@H]3CCC4=CC(=O)CC[C@@H]4[C@H]3CC[C@@]21CC [Levonorgestrel]
remaining activity at 1.25 µM ([1]; Well no.=2262): 93.9% | remaining activity at 3.75 µM ([2]; Well no.=2262): 102%

CO[C@H]1C(=O)[C@]2(C)[C@@H](OC)C[C@H]3OC[C@@]3(OC(C)=O)[C@H]2[C@H](OC(=O)c2ccccc2)[C@]2(O)C[C@H](OC(=O)[C@H](O)[C@@H](NC(=O)OC(C)(C)C)c3ccccc3)C(C)=C1C2(C)C [Cabazitaxel (Jevtana)]
remaining activity at 1.25 µM ([1]; Well no.=5263): 95.3% | remaining activity at 3.75 µM ([2]; Well no.=5263): 92.6%
